Measurements: US20130085283A1, “GERANYLGERANYLACETONE DERIVATIVES” (Coyote Pharmaceuticals, Inc., priority 2011, published 2013)

Experiments:
[1] = system: HSP27; experiment: Expression of heat shock proteins in vivo, rat brain mRNA by qPCR; conditions: time 0 = 100%
Protocol: (§1) GGA trans isomer in 5% Gum Arabic as an aqueous suspension formulation were orally dosed to Sprague-Dawley rats at 12 mg/Kg body weight. Rat brain tissues were extracted in various time points after the oral dosing. mRNA were prepared from those brain tissues extracted, and cDNA were produced. qPCR analysis was done by using primers specifically designed to detect mRNA of HSPs. GAPDH gene was used as a control to compare quantities of HSP cDNAs amplified by qPCR analysis. Amounts of cDNA quantified at time 0 are normalized as 100%, and relative amounts of cDNA compared with those at various time points are depicted in the tables below: […]

[2] = system: HSP60; experiment: as above; conditions: time 0 = 100%
Protocol: as §1

[3] = system: HSP70; experiment: as above; conditions: time 0 = 100%
Protocol: as §1

[4] = system: HSP90; experiment: as above; conditions: time 0 = 100%
Protocol: as §1

[5] = system: GAPDH; experiment: Expression of heat shock proteins in vivo, rat brain mRNA by qPCR (control gene); conditions: time 0 = 100%
Protocol: as §1

[6] = system: HSP70; experiment: HSP70 protein in rat brain lysates by Western blotting after oral dosing; type: in vivo
Protocol: The compounds tabulated below or vehicle controls were orally dosed at 12 mg/kg to Sprague-Dawley rats. Rat brain tissues were extracted in various time points after the oral dosing. Lysates were prepared from the harvested brain tissues. Western blotting analysis was done for the same protein amounts of these lysates, and western signals of HSP70 were detected by chemiluminescence and quantified in parallel with comparisons of those detected at time 0 hr. Western signals at time 0 hr were normalized as 100.

[7] = 12 hr after oral 12 mg/Kg in 5% Gum Arabic
[8] = 24 hr after oral 12 mg/Kg in 5% Gum Arabic
[9] = 48 hr after oral 12 mg/Kg in 5% Gum Arabic
[10] = 96 hr after oral 12 mg/Kg in 5% Gum Arabic

Which “HSP27 relative amount of cDNA” value [1, 7] does the source give for `CC(=O)CC/C=C(\C)CC/C=C(\C)CC/C=C(\C)CCC=C(C)C` (single isomer, unassigned) [GGA trans isomer, 5E,9E,13E-Geranylgeranyl acetone] here?
Its value is 115.38%.

What about the “HSP27 relative amount of cDNA” value [1, 8] of the same compound?
Its value is 114.61%.

What about the “HSP27 relative amount of cDNA” value [1, 9] of the same compound?
The value was 116.15%.

And the “HSP27 relative amount of cDNA” value [1, 10]?
The value was 103.84%.

And the “HSP60 relative amount of cDNA” value [2, 7]?
The value was 113.84%.

And the “HSP60 relative amount of cDNA” value [2, 8]?
The value was 130.00%.

What about the “HSP60 relative amount of cDNA” value [2, 9] of the same compound?
The value was 116.92%.

And the “HSP60 relative amount of cDNA” value [2, 10]?
The value was 103.85%.

And the “HSP70 relative amount of cDNA” value [3, 7]?
The value was 118.46%.

What about the “HSP70 relative amount of cDNA” value [3, 8] of the same compound?
The value was 107.69%.

And the “HSP70 relative amount of cDNA” value [3, 9]?
The value was 106.15%.

What about the “HSP70 relative amount of cDNA” value [3, 10] of the same compound?
Its value is 103.85%.

What about the “HSP90 relative amount of cDNA” value [4, 7] of the same compound?
Its value is 107.69%.

What about the “HSP90 relative amount of cDNA” value [4, 8] of the same compound?
Its value is 106.92%.

What about the “HSP90 relative amount of cDNA” value [4, 9] of the same compound?
The value was 105.38%.

And the “HSP90 relative amount of cDNA” value [4, 10]?
Its value is 100.77%.

What about the “GAPDH relative amount of cDNA (control gene)” value (“GAPDH relative amount of cDNA” for short) [5, 7] of the same compound?
Its value is 96.93%.

What about the “GAPDH relative amount of cDNA” value [5, 8] of the same compound?
Its value is 99.24%.

And the “GAPDH relative amount of cDNA” value [5, 9]?
The value was 100%.

What about the “GAPDH relative amount of cDNA” value [5, 10] of the same compound?
Its value is 102.31%.

What about the “Western signal of HSP70 in brain” value ([6]; 12 hr after oral 12 mg/kg, time 0 hr = 100, Vehicle 102%) of the same compound?
Its value is 115%.

And the “Western signal of HSP70 in brain” value ([6]; 48 hr after oral 12 mg/kg, time 0 hr = 100, Vehicle 105%)?
Its value is 115%.

And the “Western signal of HSP70 in brain” value ([6]; 96 hr after oral 12 mg/kg, time 0 hr = 100, Vehicle 99%)?
The value was 114%.
